Values quoted from earlier work, collected in patent publication US20070110685A1, “Combination therapy for the treatment of immunoinflammatory disorders” (priority 2005, published 2007).

Structure (SMILES): CO[C@H]1C[C@@H]2CC[C@@H](C)[C@@](O)(O2)C(=O)C(=O)N2CCCC[C@H]2C(=O)O[C@H]([C@H](C)C[C@@H]2CC[C@@H](O)[C@H](OC)C2)CC(=O)[C@H](C)/C=C(\C)[C@@H](O)[C@@H](OC)C(=O)[C@H](C)C[C@H](C)/C=C/C=C/C=C/1C [Rapamycin]
- absorption after oral administration: absorbed rapidly and completely
